Measurements as given in patent US8110348B2, “Methods and compositions for the diagnosis and treatment of schizophrenia” (priority 2005, dated 2012).
“Also recorded” adds a separate entry of the source.

Experiments:
[1] = test system: NOS1AP; experiment: Knockdown of endogenous NOS1AP protein, immunofluorescence intensity in primary dendrites; assay type: cell-based, rat; details: hippocampal neurons transfected DIV 10, fixed DIV 12 (48 hours)
Source text: A) Hippocampal neurons were transfected with either pSUPER-scramble shRNA or pSUPER-NOS1AP shRNA at DIV10 and fixed at DIV12. B) Quantification of primary dendrites shown. C) Hippocampal neurons transfected with the same vectors as in A at DIV10 and fixed and immunostained for NOS1AP at DIV12. Zoomed inset indicates a representative region of primary dendrite showing corresponding fluorescence intensities of anti-NOS1AP. D) Quantification of NOS1AP levels in primary dendrite regions, as represented by normalized (total intensity/area) fluorescence intensity levels. *p<0.05 by Student's t-test.
A shRNA was constructed to knock down NOS1AP-L with the sequence 5′-[…]-3′ (SEQ ID NO: 22; position 790 of NM_138922) using the pSUPER vector. The resulting siRNA is specific to the long isoform of NOS1AP. […] Importantly, primary dendrite number increases by 67% when NOS1AP is knocked down (FIGS. 16A and B).

[2] = test system: hippocampal neurons; experiment: Primary and secondary dendrite number in cultured hippocampal neurons; assay type: cell-based, rat
Source text: In this example, the effects of overexpression of NOS1AP protein in neurons were examined using primary cultures of hippocampal neurons. cDNAs encoding the full-length NOS1AP protein (SEQ ID No. 2) and NOS1AP-S protein (SEQ ID No. 4) were separately cloned into expression vectors and transfected along with GFP (to elucidate neuronal morphology) at 10 days in vitro, a time when dendrite outgrowth and branching is rapidly occurring. It was hypothesized that NOS1AP may affect dendrite number since the NMDA receptor has been implicated in playing a role in regulating dendrite number, and overexpression of NOS1AP is thought to disrupt NMDA receptor signaling. Two days after transfection, the neurons were fixed, and dedrites were counted as described in Akum et al., Nat Neurosci 2004 February; 7(2):145-52, 2004 and Chen et al., Mol Biol Cell 2005 November; 16(11):5103-14. […] Since dendrite morphology is crucial to interneuronal communication, the increases in short-form NOS1AP protein seen in patients suffering from neuropsychiatric disorders, such as schizophrenia and bipolar disorders, may result in altered dendrite morphology in the hippocampus, and perhaps the DLPFC.
Neuronal cultures were prepared from hippocampi of rat embryos at 18 day gestation as described previously (Firestein et al., 1999). The hippocampi were dissociated, and cells were plated on poly-D-lysine-coated glass coverslips (12 mm diameter) at a density of 1800 cells/mm^2. Cultures were maintained in Neurobasal media supplemented with B27, penicillin, streptomycin, and L-glutamine. Cells were grown for 5-21 days in vitro (DIV) and used for specific experiments as indicated below.
cDNAs encoding human NOS1AP and several mutant forms of human NOS1AP were cloned into the expression vector pCMV6-XL4 (Origene). These plasmids are referred to directly as NOS1AP (or NOS1AP mutants) without indicating the vector. In addition, the fusion proteins GFP-NOS1AP-L (GFP-NPL), GFP-NOS1AP-S (GFP-NPS), and GFP-NOS1AP-181-307 (GFP-NOS1AP-M, GFP-NPM) were constructed in the pEGFP-C1 vector (Clontech Inc.). Cultured hippocampal neurons were transfected with the appropriate cDNA constructs as follows. Neurons were transfected on DIV 10 using […] following the manufacturer's protocol (Qiagen Inc.). Neurons were transfected on DIV 2, 5, or 7 using LIPOFECTAMINE-2000 following the manufacturer's protocol (Invitrogen Inc.). The Amaxa Nucleofector kit for Rat Neurons (Amaxa Inc., kit VPG-1003) was used to transfect newly dissected neurons (DIV 0) before plating.
Neurons were fixed in 4% paraformaldehyde in PBS for 30 minutes and then incubated in blocking solution (PBS containing 0.1% Triton X-100, 2% normal goat serum, and 0.02% sodium azide) for 1 h. All antibodies used were diluted in blocking solution. For GFP and NOS1AP or GFP and HA double immunostaining, dilutions of 1:1000 for rat anti-GFP and 1:500 for rabbit anti-NOS1AP, or 1:500 for goat anti-NOS1AP, or 1:1000 for mouse anti-HA (CRP Inc.) were used. […] Labeled cells were visualized by immunofluorescence on an Olympus Optical (Tokyo, Japan) IX50 microscope with a Cooke Sensicam charge-coupled device cooled camera fluorescence imaging system and Image Pro software (Media Cybernetics, Silver Spring, Md.).
Primary and secondary dendrite numbers were counted by hand with the experimenter blinded to the conditions (Akum et al., 2004). Pictures of neurons were contrast-enhanced and the numbers of primary and secondary dendrites for each neuron were recorded. […]

## shRNA against NOS1AP-L: shRNA to knock down NOS1AP-L, sequence 5′-GCAATATCTTCAGATGCAA-3′ (SEQ ID NO: 22), in the pSUPER vector
[1]
  decrease in NOS1AP expression (knockdown of endogenous NOS1AP protein): 40%
[1]; listed as SEQ ID NO: 22
  decrease in NOS1AP expression (knockdown of endogenous NOS1AP protein): 40%
[1]; listed as shRNA Against NOS1AP Coding Sequence (Position 398)
  decrease in NOS1AP expression (knockdown of endogenous NOS1AP protein): Approximately 45%
[2]; NOS1AP knocked down, DIV 10-12, 48 hours, vs scramble shRNA
  increase in primary dendrite number: 67%

## N[C@@H](CCCP(=O)(O)O)C(=O)O [APV]
[2]; NOS1AP-L transfected neurons treated with APV
  additional decrease in dendrite branching: does not result in any additional decrease
[2]; control cells transfected with GFP alone, dosage of APV expected to fully block NMDA receptor function
  drop in primary dendrite branching: approximately 25%

## COC(=O)[C@@H](N)CCCNC(=N)N[N+](=O)[O-] [L-NAME, N(ω)-nitro-L-arginine-methyl ester]
[2]; 500 μM L-NAME, FIG. 10C
  difference in secondary dendrite number, NOS1AP-Long alone vs with L-NAME: smaller, yet the distinction was still clear
[2]; L-NAME 500 μM (FIG. 10 legend prints 500 nM) added right after transfection DIV 10, fixed DIV 12
  effect on NOS1AP-Long effects on dendrite branching: partial reduction of NOS1AP-Long effects; also recorded: reduced NOS1AP-Long (CP-L) activity
